According to patent US7781445B2, “Synthesis of indenoisoquinoliniums and methods of use” (Purdue Research Foundation, priority 2005, dated 2010):
Like-named read-outs stand apart in the source and are kept apart here.

Experiments:
HOP-62 = experiment: COMPARE screening (NCI), GI50 in HOP-62
From the text: (§1) This in vitro prescreening system is based on the measurement of anticancer cytotoxicity against human cancer cell line panels consisting of approximately 60 cell lines of major human cancers (including leukemia, and slower growing tumor cells such as lung, colon, breast, skin, kidney, etc.) and is referred hereinafter as “COMPARE” screening.
(§2) COMPARE screening. The compounds described herein were examined for antiproliferative activity against the human cancer cell lines in the National Cancer Institute screen (COMPARE screening), in which the activity of each compound was evaluated with approximately 55 different cancer cell lines of diverse tumor origins. […] Therefore, the MGM value represents an overall assessment of toxicity of the compound across numerous cell lines.

HCT-116 = experiment: COMPARE screening (NCI), GI50 in HCT-116
From the text: as §1, §2

SF-539 = experiment: COMPARE screening (NCI), GI50 in SF-539
From the text: as §1, §2

UACC-62 = experiment: COMPARE screening (NCI), GI50 in UACC-62
From the text: as §1, §2

OVCAR-3 = experiment: COMPARE screening (NCI), GI50 in OVCAR-3; details: OVCAR-3, concentration corresponding to 50% growth inhibition
From the text: as §1, §2

SN12C = experiment: COMPARE screening (NCI), GI50 in SN12C
From the text: as §1, §2

DU-145 = experiment: COMPARE screening (NCI), GI50 in DU-145
From the text: as §1, §2

MDA-MB-435 = experiment: COMPARE screening (NCI), GI50 in MDA-MB-435
From the text: as §1, §2

SR = system: SR
From the text: as §1, §2

[1] = system: all human cancer cell lines successfully tested (approximately 55); experiment: COMPARE screening, mean graph midpoint (MGM); assay type: cell-based; details: average GI50 over all cell lines tested, values outside 10^-8 to 10^-4 molar taken as the limits, read-out: MGM (mean graph midpoint for growth inhibition); for MGM (mean GI50 across cell lines): Homo sapiens
From the text: as §1, §2

topoisomerase I = target: T1, topoisomerase I (Homo sapiens, UniProt P11387); experiment: Topoisomerase I-mediated DNA cleavage, 3'-end-labeled 161 bp pBluescript SK(-) fragment; assay type: biochemical; details: Table 2; tested at concentrations ranging up to 10 μM; semi-quantitative relative to compound A
T1 sequence (P11387 1-765): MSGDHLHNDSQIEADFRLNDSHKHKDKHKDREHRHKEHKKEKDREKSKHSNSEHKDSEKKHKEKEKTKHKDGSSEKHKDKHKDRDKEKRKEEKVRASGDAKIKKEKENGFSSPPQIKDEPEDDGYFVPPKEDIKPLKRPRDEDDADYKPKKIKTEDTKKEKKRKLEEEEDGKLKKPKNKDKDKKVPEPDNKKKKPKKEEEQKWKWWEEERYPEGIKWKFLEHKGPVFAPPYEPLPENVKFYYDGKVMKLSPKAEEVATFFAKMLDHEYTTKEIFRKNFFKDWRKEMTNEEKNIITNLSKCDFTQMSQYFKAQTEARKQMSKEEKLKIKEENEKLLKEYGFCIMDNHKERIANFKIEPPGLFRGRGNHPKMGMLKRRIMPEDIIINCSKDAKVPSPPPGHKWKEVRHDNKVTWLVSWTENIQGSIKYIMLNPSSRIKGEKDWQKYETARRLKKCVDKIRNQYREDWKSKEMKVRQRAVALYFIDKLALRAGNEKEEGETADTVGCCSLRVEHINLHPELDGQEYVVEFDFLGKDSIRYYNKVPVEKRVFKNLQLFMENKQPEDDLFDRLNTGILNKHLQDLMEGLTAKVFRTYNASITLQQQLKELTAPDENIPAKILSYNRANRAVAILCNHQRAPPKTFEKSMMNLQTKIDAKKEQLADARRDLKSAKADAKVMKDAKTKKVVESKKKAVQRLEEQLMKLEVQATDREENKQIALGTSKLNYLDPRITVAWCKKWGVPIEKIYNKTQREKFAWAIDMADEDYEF
Method: The assays were carried out at room temperature for 30 min and stopped by adding 0.5% SDS. […] Topoisomerase I was present in all reaction mixtures except for the one corresponding to the first lane.
Induction of DNA cleavage.
Labeling reactions were followed by phenol-chloroform extraction and ethanol precipitation. […] Reactions were terminated by adding 0.5% SDS.
DNA Cleavage Semiquantitative Analysis. […] The rubberband baseline correction was applied with band detection sensitivity set at 90.

[2] = Homo sapiens, HOP-62, read-out: Cytotoxicity GI50, lung HOP-62, lung, HOP-62, concentration corresponding to 50% growth inhibition
[3] = Homo sapiens, HCT-116, read-out: Cytotoxicity GI50, colon HCT-116, colon, HCT-116, concentration corresponding to 50% growth inhibition
[4] = Homo sapiens, read-out: Cytotoxicity GI50, CNS SF-539
[5] = Homo sapiens, UACC-62, read-out: Cytotoxicity GI50, melanoma UACC-62, melanoma, UACC-62, concentration corresponding to 50% growth inhibition
[6] = Homo sapiens, OVCAR-3, read-out: Cytotoxicity GI50, ovarian OVCAR-3, ovarian
[7] = Homo sapiens, SN12C, read-out: Cytotoxicity GI50, renal SN12C, renal, SN12C, concentration corresponding to 50% growth inhibition
[8] = Homo sapiens, DU-145, read-out: Cytotoxicity GI50, prostate DU-145, prostate, DU-145, concentration corresponding to 50% growth inhibition
[9] = Homo sapiens, MDA-MB-435, read-out: Cytotoxicity GI50, breast MDA-MB-435, breast, MDA-MB-435, concentration corresponding to 50% growth inhibition

Compound | GI50 (HOP-62) [nM] | GI50 (HCT-116) [nM] | GI50 (SF-539) [nM] | GI50 (UACC-62) [nM] | GI50 (OVCAR-3; read-out: Cytotoxicity GI50, ovarian OVCAR-3, ovarian) [nM] | GI50 (SN12C) [nM] | GI50 (DU-145) [nM] | GI50 (MDA-MB-435) [nM] | GI50 (SR) [nM] | IC50 [1] [nM] | GI50 (HOP-62; [2]) [nM] | GI50 (HCT-116; [3]) [nM] | GI50 (SF-539; [4]) [nM] | GI50 (UACC-62; [5]) [nM] | GI50 (OVCAR-3; [6]) [nM] | GI50 (SN12C; [7]) [nM] | GI50 (DU-145; [8]) [nM] | GI50 (MDA-MB-435; [9]) [nM] | MGM (mean GI50 across cell lines) [1] [nM] | Top 1 Cleavage (topoisomerase I)
COc1cc2c[n+](CCCNC(C)=O)c3c(c2cc1OC)C(=O)c1cc2c(cc1-3)OCO2 [Compound 6ab, 2,3-Dimethoxy-6-(3-N-acetylamino-1-propyl)-8,9-(methylenedioxy)-11-oxo-indeno[1,2-c]isoquinolinium Chloride] | 1000 | 5080 | 96.8 | 3430 | 12200 | 2760 | 907 | 466 | 92.9 | 7960 |  |  |  |  |  |  |  |  |  | 
COc1cc2c3c(ncc2c(OC)c1OC)-c1c(ccc2c1OCO2)C3.Cl [Compound 9cb, 2,3,4-Trimethoxy-7,8-methylenedioxy-11H-indeno[1,2-c]isoquinoline Hydrochloride] |  |  |  |  |  |  |  |  |  |  | 234 | 69.4 | 869 | 439 | 403 | 602 | > 100000 | 178 | 2010 | ++ (++, similar activity as compound A)
COc1ccc2c(c1OC)-c1ncc3c(OC)ccc(OC)c3c1C2.Cl [Compound 9da, 1,4,7,8-Tetramethoxy-11H-indeno[1,2-c]isoquinoline Hydrochloride] |  |  |  |  |  |  |  |  |  |  | 21400 | 17800 | 14000 | 18000 | 15400 | 14800 | 28100 | 23400 | 18600 | 0 (0, no activity)
